According to patent publication US10385024B2, “Compounds and methods for inhibiting NHE-mediated antiport in the treatment of disorders associated with fluid retention or salt overload and gastrointestinal tract disorders” (Ardelyx, Inc., priority 2012, dated 2019):

How the values were obtained:
human NHE-3 = biological target: T1, human NHE-3 (Homo sapiens, UniProt P48764); assay: Cell-based assay of NHE-3 activity (human NHE3 inhibition assay); conditions: OK cells with human NHE-3 gene, BCECF pH dye, 0-30 μM test compound
T1 construct: expressed in transfected cells; host or cells: Opossum kidney (OK) cells (ATCC), transfected by electroporation
T1 sequence (P48764 26-834): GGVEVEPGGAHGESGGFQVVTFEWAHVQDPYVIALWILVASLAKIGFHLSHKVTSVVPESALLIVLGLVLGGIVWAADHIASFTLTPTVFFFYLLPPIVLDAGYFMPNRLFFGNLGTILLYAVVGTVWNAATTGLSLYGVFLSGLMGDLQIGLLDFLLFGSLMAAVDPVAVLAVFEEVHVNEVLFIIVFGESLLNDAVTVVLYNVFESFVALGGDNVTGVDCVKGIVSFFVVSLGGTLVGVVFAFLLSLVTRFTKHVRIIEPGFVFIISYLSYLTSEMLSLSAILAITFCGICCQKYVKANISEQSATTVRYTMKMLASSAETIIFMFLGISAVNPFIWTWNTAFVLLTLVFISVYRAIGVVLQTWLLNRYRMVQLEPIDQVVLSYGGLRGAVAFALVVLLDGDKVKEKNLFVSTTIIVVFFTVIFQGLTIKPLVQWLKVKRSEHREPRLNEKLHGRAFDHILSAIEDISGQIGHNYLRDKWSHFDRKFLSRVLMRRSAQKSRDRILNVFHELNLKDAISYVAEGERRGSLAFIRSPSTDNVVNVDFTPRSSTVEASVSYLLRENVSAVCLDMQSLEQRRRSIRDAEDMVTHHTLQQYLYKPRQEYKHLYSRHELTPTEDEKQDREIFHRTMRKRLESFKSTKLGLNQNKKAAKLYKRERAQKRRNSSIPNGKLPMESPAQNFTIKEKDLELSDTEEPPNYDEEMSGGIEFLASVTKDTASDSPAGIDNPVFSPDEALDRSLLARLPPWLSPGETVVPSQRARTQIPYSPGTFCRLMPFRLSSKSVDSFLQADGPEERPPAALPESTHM
Description: (§1) Rat or human NHE-3-mediated Na^+-dependent H^+ antiport was measured using a modification of the pH sensitive dye method originally reported by Paradiso (Proc. Natl. Acad. Sci. USA. (1984) 81(23): 7436-7440). Opossum kidney (OK) cells were obtained from the ATCC and propagated per their instructions. The rat NHE-3 gene (GenBank M85300) or the human NHE-3 gene (GenBank NM_004174.1) was introduced into OK cells via electroporation, and cells were seeded into 96 well plates and grown overnight. Medium was aspirated from the wells, cells were washed twice with NaCl-HEPES buffer (100 mM NaCl, 50 mM HEPES, 10 mM glucose, 5 mM KCl, 2 mM CaCl2, 1 mM MgCl2, pH 7.4), then incubated for 30 min at room temperature with NH4Cl-HEPES buffer (20 mM NH4Cl, 80 mM NaCl, 50 mM HEPES, 5 mM KCl, 2 mM CaCl2, 1 mM MgCl2, pH 7.4) containing 5 μM bis(acetoxymethyl) 3,3′-(3′,6′-bis(acetoxymethoxy)-5-((acetoxymethoxy)carbonyl)-3-oxo-3H-spiro[isobenzofuran-1,9′-xanthene]-2′,7′-diyl)dipropanoate (BCECF-AM). Cells were washed twice with Ammonium free, Na^+-free HEPES (100 mM choline, 50 mM HEPES, 10 mM glucose, 5 mM KCl, 2 mM CaCl2, 1 mM MgCl2, pH 7.4) and incubated in the same buffer for 10 minutes at room temperature to lower intracellular pH. […] Initial rates were plotted as the average 2 or more replicates, and pIC50 values were estimated using GraphPad Prism.

Rat NHE-3 [1] = biological target: T2, Rat NHE-3 (Rattus norvegicus, UniProt P26433); assay: Cell-based assay of NHE-3 activity (persistent inhibition, after washout); conditions: OK cells with rat NHE-3 gene, 60 min incubation, recovery initiated 40 min after compound washout
T2 construct: expressed in transfected cells; host or cells: Opossum kidney (OK) cells (ATCC), transfected by electroporation
Description: The ability of compounds to inhibit Rat NHE-3-mediated Na^+-dependent H^+ antiport after application and washout was measured using a modification of the pH sensitive dye method described above in Example 74. Opossum kidney (OK) cells were obtained from the ATCC and propagated per their instructions. The rat NHE-3 gene was introduced into OK cells via electroporation, and cells were seeded into 96 well plates and grown overnight. Medium was aspirated from the wells, cells were washed twice with NaCl-HEPES buffer (100 mM NaCl, 50 mM HEPES, 10 mM glucose, 5 mM KCl, 2 mM CaCl2, 1 mM MgCl2, pH 7.4), then overlayed with NaCl-HEPES buffer containing 0-30 μM test compound. After a 60 min incubation, the test drug containing buffer was aspirated from the cells, cells were washed twice with NaCl-HEPES buffer without drug, then incubated for 30 min at room temperature with NH4Cl-HEPES buffer (20 mM NH4Cl, 80 mM NaCl, 50 mM HEPES, 5 mM KCl, 2 mM CaCl2, 1 mM MgCl2, pH 7.4) containing 5 μM BCECF-AM. Cells were washed twice with ammonium free, Na^+-free HEPES (100 mM choline, 50 mM HEPES, 10 mM glucose, 5 mM KCl, 2 mM CaCl2, 1 mM MgCl2, pH 7.4) and incubated in the same buffer for 10 minutes at room temperature to lower intracellular pH. […] Initial rates were plotted as the average 2 or more replicates, and pIC50 values were estimated using GraphPad Prism.

Rat NHE-3 [2] = biological target: T2, Rat NHE-3; assay: Cell-based assay of NHE-3 activity (rat NHE-3 prompt inhibition); conditions: OK cells with rat NHE-3 gene, compound present during pH recovery
Description: as §1

[3] = tested on: absorption of sodium from the intestinal lumen; assay: Inhibition of intestinal sodium absorption (urinary sodium and fecal form); assay type: in vivo, Sprague-Dawley rats; conditions: rat, 3 mg/kg oral gavage, urine 16 h post-dose; asterisks = significance vs vehicle (*P<0.05, **P<0.01, ***P<0.001); read-out: uNa (% of vehicle)
Description: Urinary sodium concentration and fecal form were measured to assess the ability of selected example compounds to inhibit the absorption of sodium from the intestinal lumen. Eight-week old Sprague-Dawley rats were purchased from Charles River Laboratories (Hollister, Calif.), were housed 2 per cage, and acclimated for at least 3 days before study initiation. Animals were fed Harlan Teklad Global 2018 rodent chow (Indianapolis, Ind.) and water ad libitum throughout the study and maintained in a standard light/dark cycle of 6 AM to 6 PM. On the day of the study, between 4 PM and 5 PM, a group of rats (n=6) were dosed via oral gavage with test compound at the dosage indicated or vehicle (water) at a volume of 10 mL/kg. After dose administration animals were placed in individual metabolic cages where they were also fed the same chow in meal form and watered ad libitum. At 16 h post-dose, the urine samples were collected and fecal form was assessed by two independent observations. Fecal forms were scored according to a common scale associated with increasing fecal water to the wettest observation in the cage's collection funnel (1, normal pellet; 2, pellet adhering to sides of collection funnel due to moisture; 3, loss of normal pellet shape; 4, complete loss of shape with a blotting pattern; 5, liquid fecal streams evident). A rat's fecal form score (FFS) was determined by averaging both observational scores for all rats within a group (n=6). In every study the vehicle group average was 1. For urine samples, the volumes were determined gravimetrically and centrifuged at 3,600×g. The supernatants were diluted 100-fold in deionized Milli-Q water then filtered through a 0.2 μm GHP Pall AcroPrep filter plate (Pall Life Sciences, Ann Arbor, Mich.) prior to analysis by ion chromatography. Ten microliters of each filtered extract was injected onto a Dionex ICS-3000 ion chromatograph system (Dionex, Sunnyvale, Calif.). Cations were separated by an isocratic method using 25 mM methanesulfonic acid as the eluent on an IonPac CS12A 2 mm i.d.×250 mm, 8 μm particle size cation exchange column (Dionex). Sodium was quantified using standards prepared from a cation standard mix containing Li^+, Na^+, NH4^+, K^+, Mg^2+, and Ca^2+ (Dionex). The mean mass of sodium urinated for every group in the 16 h period was determined with the vehicle group usually urinating approximately 21 mg sodium. The urine Na (uNa) for rats in the test groups were expressed as a percentage of the vehicle mean and the means were compared to that of the vehicle group by utilizing a one-way analysis of variance coupled with a Dunnett's post hoc test.

T2 sequence (P26433 29-831): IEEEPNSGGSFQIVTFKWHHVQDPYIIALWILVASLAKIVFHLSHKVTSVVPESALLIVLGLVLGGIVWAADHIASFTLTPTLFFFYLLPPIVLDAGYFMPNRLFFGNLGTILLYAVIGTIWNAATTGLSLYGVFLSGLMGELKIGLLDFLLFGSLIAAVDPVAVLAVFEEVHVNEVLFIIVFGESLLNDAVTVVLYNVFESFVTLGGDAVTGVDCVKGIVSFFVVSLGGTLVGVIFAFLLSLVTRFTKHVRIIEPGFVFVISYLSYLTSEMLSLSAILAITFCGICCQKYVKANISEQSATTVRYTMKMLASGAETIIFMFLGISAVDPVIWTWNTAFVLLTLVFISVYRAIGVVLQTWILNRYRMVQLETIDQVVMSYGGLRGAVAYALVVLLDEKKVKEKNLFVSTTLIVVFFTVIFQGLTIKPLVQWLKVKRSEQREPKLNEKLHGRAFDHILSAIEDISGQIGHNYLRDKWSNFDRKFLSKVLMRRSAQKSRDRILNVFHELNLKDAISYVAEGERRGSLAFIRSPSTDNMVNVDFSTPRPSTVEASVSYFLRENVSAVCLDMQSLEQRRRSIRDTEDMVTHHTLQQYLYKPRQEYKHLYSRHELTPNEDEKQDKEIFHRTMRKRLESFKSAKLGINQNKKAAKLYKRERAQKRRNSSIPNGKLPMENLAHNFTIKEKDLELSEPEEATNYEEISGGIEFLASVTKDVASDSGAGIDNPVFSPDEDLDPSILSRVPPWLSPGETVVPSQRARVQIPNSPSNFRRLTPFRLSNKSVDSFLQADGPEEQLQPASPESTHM

Compound	IC50 (human NHE-3; read-out: Human NHE3 pIC50 (converted)) [µM]	IC50 (Rat NHE-3 [1]; read-out: Rat NHE3 pIC50 (persistent) (converted)) [µM]	IC50 (Rat NHE-3 [2]; read-out: Rat NHE3 pIC50 (prompt) (converted)) [µM]	response vs control in vivo at 3 mg/kg [3] [%]	Human NHE3 pIC50 (human NHE-3)	Rat NHE3 pIC50 (persistent) (Rat NHE-3 [1])	Rat NHE3 pIC50 (prompt) (Rat NHE-3 [2])
CN1Cc2c(Cl)cc(Cl)cc2[C@H](c2cccc(S(=O)(=O)NCCOCCOCCNC(=O)CCC(CCC(=O)NCCOCCOCCNS(=O)(=O)c3cccc([C@@H]4CN(C)Cc5c(Cl)cc(Cl)cc54)c3)(CCC(=O)NCCOCCOCCNS(=O)(=O)c3cccc([C@@H]4CN(C)Cc5c(Cl)cc(Cl)cc54)c3)NS(C)(=O)=O)c2)C1 [Example 5, N^1,N^7-bis(2-(2-(2-(3-((S)-6,8-dichloro-2-methyl-1,2,3,4-tetrahydroisoquinolin-4-yl)phenylsulfonamido)ethoxy)ethoxy)ethyl)-4-(3-(2-(2-(2-(3-((S)-6,8-dichloro-2-methyl-1,2,3,4-tetrahydroisoquinolin-4-yl)phenylsulfonamido)ethoxy)ethoxy)ethylamino)-3-oxopropyl)-4-(methylsulfonamido)heptanediamide]	0.1 to 10	< 0.1	0.1 to 10	35 to 75			
CN1Cc2c(Cl)cc(Cl)cc2[C@H](c2cccc(S(=O)(=O)NCCOCCOCCOCCNC(=O)CN(CCN(CC(=O)NCCOCCOCCOCCNS(=O)(=O)c3cccc([C@@H]4CN(C)Cc5c(Cl)cc(Cl)cc54)c3)CC(=O)NCCOCCOCCOCCNS(=O)(=O)c3cccc([C@@H]4CN(C)Cc5c(Cl)cc(Cl)cc54)c3)CCN(CC(=O)NCCOCCOCCOCCNS(=O)(=O)c3cccc([C@@H]4CN(C)Cc5c(Cl)cc(Cl)cc54)c3)CC(=O)NCCOCCOCCOCCNS(=O)(=O)c3cccc([C@@H]4CN(C)Cc5c(Cl)cc(Cl)cc54)c3)c2)C1 [Example 49]					B (B NHE3 pIC50 5-7)	B (B NHE3 pIC50 5-7)	B (B NHE3 pIC50 5-7)
CN1Cc2c(Cl)cc(Cl)cc2[C@H](c2cccc(S(=O)(=O)NCCOCCOCCOCCNC(=O)NCCCN(CCCNC(=O)NCCOCCOCCOCCNS(=O)(=O)c3cccc([C@@H]4CN(C)Cc5c(Cl)cc(Cl)cc54)c3)CCCNC(=O)NCCOCCOCCOCCNS(=O)(=O)c3cccc([C@@H]4CN(C)Cc5c(Cl)cc(Cl)cc54)c3)c2)C1 [Example 51]					C (C NHE3 pIC50 > 7)	C (C NHE3 pIC50 > 7)	C (C NHE3 pIC50 > 7)
CN1Cc2c(Cl)cc(Cl)cc2[C@H](c2cccc(S(=O)(=O)NCCOCCOCCNC(=O)NCCN(CCNC(=O)NCCOCCOCCNS(=O)(=O)c3cccc([C@@H]4CN(C)Cc5c(Cl)cc(Cl)cc54)c3)C(=O)CCOCCOCCOCCOCCOCCC(=O)N(CCNC(=O)NCCOCCOCCNS(=O)(=O)c3cccc([C@@H]4CN(C)Cc5c(Cl)cc(Cl)cc54)c3)CCNC(=O)NCCOCCOCCNS(=O)(=O)c3cccc([C@@H]4CN(C)Cc5c(Cl)cc(Cl)cc54)c3)c2)C1 [Example 59]					C (C NHE3 pIC50 > 7)	C (C NHE3 pIC50 > 7)	B (B NHE3 pIC50 5-7)
CN1Cc2c(Cl)cc(Cl)cc2[C@H](c2cccc(S(=O)(=O)NCCOCCOCCNC(=O)NCCN(CCNC(=O)NCCOCCOCCNS(=O)(=O)c3cccc([C@@H]4CN(C)Cc5c(Cl)cc(Cl)cc54)c3)C(=O)CCOCCOCCOCCOCCOCCOCCOCCOCCOCCC(=O)N(CCNC(=O)NCCOCCOCCNS(=O)(=O)c3cccc([C@@H]4CN(C)Cc5c(Cl)cc(Cl)cc54)c3)CCNC(=O)NCCOCCOCCNS(=O)(=O)c3cccc([C@@H]4CN(C)Cc5c(Cl)cc(Cl)cc54)c3)c2)C1 [Example 61]					C (C NHE3 pIC50 > 7)	B (B NHE3 pIC50 5-7)	B (B NHE3 pIC50 5-7)
CN1Cc2c(Cl)cc(Cl)cc2[C@H](c2cccc(S(=O)(=O)NCCOCCOCCN(C)C(=O)CCC(CCC(=O)N(C)CCOCCOCCNS(=O)(=O)c3cccc([C@@H]4CN(C)Cc5c(Cl)cc(Cl)cc54)c3)(CCC(=O)N(C)CCOCCOCCNS(=O)(=O)c3cccc([C@@H]4CN(C)Cc5c(Cl)cc(Cl)cc54)c3)NC(=O)NCC(=O)O)c2)C1 [Example 69]					C (C NHE3 pIC50 > 7)	C (C NHE3 pIC50 > 7)	C (C NHE3 pIC50 > 7)
